The assay has as its target T1, human M1 receptor (hCHRM1) (Homo sapiens, UniProt P11229).
T1 construct: expressed in transfected cells; host or cells: CHO-K1
T1 sequence (P11229 1-460): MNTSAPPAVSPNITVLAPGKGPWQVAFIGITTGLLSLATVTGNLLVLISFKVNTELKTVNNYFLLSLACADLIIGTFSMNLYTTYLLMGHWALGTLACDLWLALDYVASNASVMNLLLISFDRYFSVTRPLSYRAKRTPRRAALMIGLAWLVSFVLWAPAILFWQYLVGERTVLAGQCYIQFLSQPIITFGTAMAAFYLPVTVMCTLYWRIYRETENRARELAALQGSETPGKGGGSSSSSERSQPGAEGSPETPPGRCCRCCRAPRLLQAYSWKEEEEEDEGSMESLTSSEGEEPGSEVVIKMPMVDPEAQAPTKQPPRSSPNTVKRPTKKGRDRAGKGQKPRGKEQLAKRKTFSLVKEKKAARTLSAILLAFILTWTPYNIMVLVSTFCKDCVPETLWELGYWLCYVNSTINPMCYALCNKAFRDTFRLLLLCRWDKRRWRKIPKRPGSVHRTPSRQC
Put plainly: Measurement of M1 receptor positive allosteric modulator (M1PAM) activity, calcium fluorescence (FLIPRtetra) in CHO-K1 cells in the presence of acetylcholine at EC20. The format is cell-based. Particulars: in the presence of acetylcholine at EC20 (final 0.6 nM), CHO-K1 cells expressing hCHRM1; for EC50: inflection point of M1PAM activity, read-out: IP value; for activity (%) at 10 μM: test compound 10 μM. The procedure: Measurement of M1 Receptor Positive Allosteric Modulator (M1PAM) Activity
The activity of a test compound in the presence of acetylcholine at EC20 concentration (final concentration 0.6 nM), which affords an action corresponding to 20% of the maximum activity, was measured as PAM activity. The method is as follows. CHO-K1 cells forcibly expressing a human M1 receptor (hCHRM1) were plated on a 384-well black clear bottom plate (BD Falcon) at 5,000 cells/well, and cultured in an incubator at 37° C., 5% CO2 for 1 day. The medium in the cell plate was removed, and assay buffer A (Recording medium (DOJINDO LABORATORIES), 0.1% BSA (Wako Pure Chemical Industries, Ltd.), 2.5 μg/mL Fluo-4 AM (DOJINDO LABORATORIES), 0.08% Pluronic F127 (DOJINDO LABORATORIES), 1.25 mM probenecid (DOJINDO LABORATORIES)) containing a calcium indicator was added at 30 μL/well. The cells were left standing in the incubator at 37° C., 5% CO2 for 30 min, and further left standing at room temperature for 30 min. A test compound prepared by diluting with assay buffer B (HBSS (Invitrogen), 20 mM HEPES (Invitrogen), 0.1% BSA) containing 2.4 nM acetylcholine was added at 10 μL/well, and the fluorescence was measured by FLIPRtetra (Molecular Devices) for 1 min every 1 second. With the definition that the amount of change in the fluorescence on addition of acetylcholine (final concentration 1 μM) is 100% and that on addition of DMSO instead of a test compound is 0%, the activity (%) of the test compound and the inflection point in the concentration-dependent curve of the test compound were calculated as IP values.

The text below walks through data of patent US9777005B2 (Takeda Pharmaceutical Company Limited, priority 2012, dated 2017).

Where a name gives a salt, the structure may show the parent alone.

With `Cc1nn(C)cc1-c1ccc(CN2Cc3ccnc(O[C@H]4CCCC[C@@H]4O)c3C2=O)s1` (relative stereo) [Example 402, 2-((5-(1,3-dimethyl-1H-pyrazol-4-yl)-2-thienyl)methyl)-4-((trans-2-hydroxycyclohexyl)oxy)-1,2-dihydro-3H-pyrrolo[3,4-c]pyridin-3-one], the EC50 turned out to be 4.6 nM and the “activity (%) at 10 μM” value came to 104%.
The corresponding values for `Cc1cc(-c2ccc(CN3Cc4ccnc(O[C@@H]5CCC[C@H]5O)c4C3=O)cc2)ccn1` (single isomer, unassigned) [Example 242, 4-((trans-2-hydroxycyclopentyl)oxy)-2-(4-(2-methylpyridin-4-yl)benzyl)-1,2-dihydro-3H-pyrrolo[3,4-c]pyridin-3-one] are 8.2 nM and 110%.
The corresponding values for `Cc1cc(-c2ccc(CN3Cc4ccnc(O[C@@H]5CCC[C@H]5O)c4C3=O)cc2)ccn1` (single isomer, unassigned) [Example 243, 4-((trans-2-hydroxycyclopentyl)oxy)-2-(4-(2-methylpyridin-4-yl)benzyl)-1,2-dihydro-3H-pyrrolo[3,4-c]pyridin-3-one] are 37 nM and 104%.
The corresponding values for `Cn1ccc(-c2ccc(CN3Cc4ccnc(OCC5CCCO5)c4C3=O)cc2)n1` (single isomer, unassigned) [Example 245, 2-(4-(1-methyl-1H-pyrazol-3-yl)benzyl)-4-((tetrahydrofuran-2-yl)methoxy)-1,2-dihydro-3H-pyrrolo[3,4-c]pyridin-3-one] are 57 nM and 101%.
Consider `Cn1ccc(-c2ccc(CN3Cc4ccnc(OCC5CCCO5)c4C3=O)cc2)n1` (single isomer, unassigned) [Example 246, 2-(4-(1-methyl-1H-pyrazol-3-yl)benzyl)-4-((tetrahydrofuran-2-yl)methoxy)-1,2-dihydro-3H-pyrrolo[3,4-c]pyridin-3-one], for which the EC50 was 9.4 nM and the “activity (%) at 10 μM” value came to 100%.
The corresponding values for `Cc1nn(C)cc1-c1ccc(CN2Cc3cccc(O[C@@H]4CCOC[C@H]4O)c3C2=O)cc1` (single isomer, unassigned) [Example 248, 1,5-anhydro-2-deoxy-3-O-(2-(4-(1,3-dimethyl-1H-pyrazol-4-yl)benzyl)-3-oxo-2,3-dihydro-1H-isoindol-4-yl)-threo-pentitol] are 3 nM and 117%.
The corresponding values for `Cc1nn(C)cc1-c1ccc(CN2Cc3ccnc(O[C@@H]4CCC[C@H]4O)c3C2=O)cc1` (single isomer, unassigned) [Example 255, 2-(4-(1,3-dimethyl-1H-pyrazol-4-yl)benzyl)-4-((trans-2-hydroxycyclopentyl)oxy)-1,2-dihydro-3H-pyrrolo[3,4-c]pyridin-3-one] are 48 nM and 106%.
Taken in the same sequence, the figures for `Cc1nn(C)cc1-c1ccc(CN2Cc3ccnc(O[C@@H]4CCC[C@H]4O)c3C2=O)cc1` (single isomer, unassigned) [Example 256, 2-(4-(1,3-dimethyl-1H-pyrazol-4-yl)benzyl)-4-((trans-2-hydroxycyclopentyl)oxy)-1,2-dihydro-3H-pyrrolo[3,4-c]pyridin-3-one] were 4 nM and 101%.
Turning to `Cc1cc(-c2ccc(CN3Cc4ccnc(O[C@@H]5CCC[C@H]5O)c4C3=O)cc2)ccn1` (single isomer, unassigned) [Example 258, 4-((trans-2-hydroxycyclopentyl)oxy)-2-(4-(2-methylpyridin-4-yl)benzyl)-1,2-dihydro-3H-pyrrolo[3,4-c]pyridin-3-one hydrochloride], the EC50 worked out at 5.7 nM. Moreover, the “activity (%) at 10 μM” value (hydrochloride) stood at 107%.
The corresponding values for `Cc1cc(-c2ccc(CN3Cc4ccnc(O[C@@H]5CCC[C@H]5O)c4C3=O)cc2)ccn1` (single isomer, unassigned) [Example 259, 4-((trans-2-hydroxycyclopentyl)oxy)-2-(4-(2-methylpyridin-4-yl)benzyl)-1,2-dihydro-3H-pyrrolo[3,4-c]pyridin-3-one hydrochloride] are 85 nM and 109%.
As to `O=C1c2c(cccc2O[C@@H]2CCOC[C@H]2O)CN1Cc1ccc(Br)cc1` (single isomer, unassigned) [Example 268, 1,5-anhydro-3-O-(2-(4-bromobenzyl)-3-oxo-2,3-dihydro-1H-isoindol-4-yl)-2-deoxy-threo-pentitol], the EC50 was found to be 39 nM and the “activity (%) at 10 μM” value turned out to be 103%.
On to `O=C1c2c(cccc2O[C@@H]2COCC[C@H]2O)CN1Cc1ccc(Br)cc1` (single isomer, unassigned) [Example 271, 1,5-anhydro-2-O-(2-(4-bromobenzyl)-3-oxo-2,3-dihydro-1H-isoindol-4-yl)-4-deoxy-threo-pentitol], for which the EC50 worked out at 130 nM and the “activity (%) at 10 μM” value was 97%.
Taken in the same sequence, the figures for `CCC(CO)Oc1nccc2c1C(=O)N(Cc1ccc(-c3cn(C)nc3C)cc1)C2` (single isomer, unassigned) [Example 274, 2-(4-(1,3-dimethyl-1H-pyrazol-4-yl)benzyl)-4-((l-hydroxybutan-2-yl)oxy)-1,2-dihydro-3H-pyrrolo[3,4-c]pyridin-3-one] were 12 nM and 102%.
The corresponding values for `CCC(CO)Oc1nccc2c1C(=O)N(Cc1ccc(-c3cn(C)nc3C)cc1)C2` (single isomer, unassigned) [Example 275, 2-(4-(1,3-dimethyl-1H-pyrazol-4-yl)benzyl)-4-((l-hydroxybutan-2-yl)oxy)-1,2-dihydro-3H-pyrrolo[3,4-c]pyridin-3-one] are 76 nM and 104%.
The corresponding values for `CCC(O)COc1nccc2c1C(=O)N(Cc1ccc(-c3cn(C)nc3C)cc1)C2` (single isomer, unassigned) [Example 276, 2-(4-(1,3-dimethyl-1H-pyrazol-4-yl)benzyl)-4-(2-hydroxybutoxy)-1,2-dihydro-3H-pyrrolo[3,4-c]pyridin-3-one] are 3.6 nM and 99%.
`CCC(O)COc1nccc2c1C(=O)N(Cc1ccc(-c3cn(C)nc3C)cc1)C2` (single isomer, unassigned) [Example 277, 2-(4-(1,3-dimethyl-1H-pyrazol-4-yl)benzyl)-4-(2-hydroxybutoxy)-1,2-dihydro-3H-pyrrolo[3,4-c]pyridin-3-one]: the EC50 is 42 nM and the “activity (%) at 10 μM” value is on record as 96%.
The corresponding values for `O=C1c2c(cccc2O[C@@H]2CCOC[C@H]2O)CN1Cc1ccc(Cl)cc1` (single isomer, unassigned) [Example 292, 1,5-anhydro-3-O-(2-(4-chlorobenzyl)-3-oxo-2,3-dihydro-1H-isoindol-4-yl)-2-deoxy-threo-pentitol] are 48 nM and 101%.
Taken in the same sequence, the figures for `O=C1c2c(cccc2O[C@@H]2COCC[C@H]2O)CN1Cc1ccc(Cl)cc1` (single isomer, unassigned) [Example 295, 1,5-anhydro-2-O-(2-(4-chlorobenzyl)-3-oxo-2,3-dihydro-1H-isoindol-4-yl)-4-deoxy-threo-pentitol] were 150 nM and 100%.
Taken in the same sequence, the figures for `O=C1c2c(cccc2O[C@@H]2CCOC[C@H]2O)CN1Cc1ccc(F)cc1F` (single isomer, unassigned) [Example 299, 1,5-anhydro-2-deoxy-3-O-(2-(2,4-difluorobenzyl)-3-oxo-2,3-dihydro-1H-isoindol-4-yl)-threo-pentitol] were 18 nM and 91%.
As to `O=C1c2c(cccc2O[C@@H]2COCC[C@H]2O)CN1Cc1ccc(F)cc1F` (single isomer, unassigned) [Example 301, 1,5-anhydro-2-deoxy-4-O-(2-(2,4-difluorobenzyl)-3-oxo-2,3-dihydro-1H-isoindol-4-yl)-threo-pentitol], the EC50 amounted to 120 nM and the “activity (%) at 10 μM” value is reported as 89%.
